Source: US7812021B2, “Pyrrolidine aryl-ether as NK3 receptor antagonists” (Hoffmann-La Roche Inc., priority 2007, dated 2010)

Target: T1, recombinant human NK3 receptor (Homo sapiens, UniProt P29371)
T1 construct: expressed in transfected cells; host or cells: HEK293 cells, transient expression; membranes
T1 sequence (P29371 1-465): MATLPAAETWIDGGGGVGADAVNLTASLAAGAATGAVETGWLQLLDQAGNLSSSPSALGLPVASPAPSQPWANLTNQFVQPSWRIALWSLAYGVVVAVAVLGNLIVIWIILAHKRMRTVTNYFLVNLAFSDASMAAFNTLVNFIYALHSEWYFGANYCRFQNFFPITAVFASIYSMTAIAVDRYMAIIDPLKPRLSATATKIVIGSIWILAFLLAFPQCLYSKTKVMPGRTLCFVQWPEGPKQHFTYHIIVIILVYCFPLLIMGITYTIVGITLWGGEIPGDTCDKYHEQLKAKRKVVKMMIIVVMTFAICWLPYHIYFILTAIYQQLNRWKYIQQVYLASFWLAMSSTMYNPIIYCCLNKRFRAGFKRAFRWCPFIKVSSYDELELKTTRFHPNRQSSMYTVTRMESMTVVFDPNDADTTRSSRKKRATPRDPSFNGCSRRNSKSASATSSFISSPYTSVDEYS
Experiment: [3H]SR142801 competition binding assay
Conditions: membranes from HEK293 cells transiently expressing recombinant human NK3 receptor; [3H]SR142801 radioligand; Ki by Cheng-Prussoff
Method: [^3H]SR142801 Competition Binding Assay
hNK3 receptor binding experiment were performed using [^3H]SR142801 (Catalog No. TRK1035, specific activity: 74.0 Ci/mmol, Amersham, GE Healthcare UK limited, Buckinghamshire, UK) and membrane isolated from HEK293 cells transiently expressing recombinant human NK3 receptor. After thawing, the membrane homogenates were centrifuged at 48,000×g for 10 min at 4° C., the pellets were resuspended in the 50 mM Tris-HCl, 4 mM MnCl2, 1 μM phosphoramidon, 0.1% BSA binding buffer at pH 7.4 to a final assay concentration of 5 μg protein/well. For inhibition experiments, membranes were incubated with [^3H]SR142801 at a concentration equal to KD value of radioligand and 10 concentrations of the inhibitory compound (0.0003-10 μM) (in a total reaction volume of 500 μl) for 75 min at room temperature (RT). At the end of the incubation, membranes were filtered onto unit filter (96-well white microplate with bonded GF/C filter preincubated 1 h in 0.3% PEI+0.3% BSA, Packard BioScience, Meriden, Conn.) with a Filtermate 196 harvester (Packard BioScience) and washed 4 times with ice-cold 50 mM Tris-HCl, pH 7.4 buffer. Nonspecific binding was measured in the presence of 10 μM SB222200 for both radioligands. The radioactivity on the filter was counted (5 min) on a Packard Top-count microplate scintillation counter with quenching correction after addition of 45 μl of microscint 40 (Canberra Packard S. A., Zürich, Switzerland) and shaking for 1 h. Inhibition curves were fitted according to the Hill equation: y=100/(1+(x/IC50)^nH), where nH=slope factor using Excel-fit 4 software (Microsoft). IC50 values were derived from the inhibition curve and the affinity constant (Ki) values were calculated using the Cheng-Prussoff equation Ki=IC50/(1+[L]/KD) where [L] is the concentration of radioligand and KD is its dissociation constant at the receptor, derived from the saturation isotherm. All experiments were performed in duplicate and the mean±standard error (SEM) of the individual Ki values was calculated.

Ki | Structure (SMILES)
21.1 nM | C[C@@H](Oc1ccc(Cl)cc1)[C@@H]1CN(C(=O)N2CCN(S(C)(=O)=O)CC2)C[C@H]1c1ccc(Cl)c(Cl)c1 (mixture of isomers) [Example 36, [(3SR,4RS)-3-[(R)-1-(4-Chloro-phenoxy)-ethyl]-4-(3,4-dichloro-phenyl)-pyrrolidin-1-yl]-(4-methanesulfonyl-piperazin-1-yl)-methanone]
2 nM | C[C@@H]1CN(C(=O)N2C[C@@H]([C@@H](C)Oc3ccc(Cl)cn3)[C@H](c3ccc(Cl)c(Cl)c3)C2)CCN1S(C)(=O)=O (mixture of isomers) [Example 54, [(3SR,4RS)-3-[(RS)-1-(5-Chloro-pyridin-2-yloxy)-ethyl]-4-(3,4-dichloro-phenyl)-pyrrolidin-1-yl]-((R)-4-methanesulfonyl-3-methyl-piperazin-1-yl)-methanone]
2.9 nM | C[C@@H](Oc1ccc(Cl)cn1)[C@@H]1CN(C(=O)N2CCN(S(C)(=O)=O)CC2)C[C@H]1c1ccc(Cl)c(Cl)c1 (racemic) [Example 39, [(3SR,4RS)-3-[(RS)-1-(5-Chloro-pyridin-2-yloxy)-ethyl]-4-(3,4-dichloro-phenyl)-pyrrolidin-1-yl]-(4-methanesulfonyl-piperazin-1-yl)-methanone]
49 nM | C[C@@H](Oc1ccc(F)c(Cl)c1)[C@@H]1CN(C(=O)N2CCN(S(C)(=O)=O)CC2)C[C@H]1c1ccc(Cl)c(Cl)c1 (racemic) [Example 41, [(3SR,4RS)-3-[(RS)-1-(3-Chloro-4-fluoro-phenoxy)-ethyl]-4-(3,4-dichloro-phenyl)-pyrrolidin-1-yl]-(4-methanesulfonyl-piperazin-1-yl)-methanone]
69.9 nM | C[C@@H](Oc1ncccn1)[C@@H]1CN(C(=O)N2CCN(S(C)(=O)=O)CC2)C[C@H]1c1ccc(Cl)c(Cl)c1 (racemic) [Example 42, [(3RS,4SR)-3-(3,4-Dichloro-phenyl)-4-[(RS)-1-(pyrimidin-2-yloxy)-ethyl]-pyrrolidin-1-yl}-(4-methanesulfonyl-piperazin-1-yl)-methanone]
95.4 nM | C[C@H](Oc1ccc(C#N)cc1)[C@@H]1CN(C(=O)N2CCN(S(C)(=O)=O)CC2)C[C@H]1c1ccc(Cl)c(Cl)c1 (racemic) [Example 45, 4-{(SR)-1-[(3SR,4RS)-4-(3,4-Dichloro-phenyl)-1-(4-methanesulfonyl-piperazine-1-carbonyl)-pyrrolidin-3-yl]-ethoxy}-benzonitrile]
49.7 nM | C[C@H](Oc1ccc(F)cc1)[C@@H]1CN(C(=O)N2CCN(S(C)(=O)=O)CC2)C[C@H]1c1ccc(Cl)c(Cl)c1 (racemic) [Example 46, {(3RS,4SR)-3-(3,4-Dichloro-phenyl)-4-[(SR)-1-(4-fluoro-phenoxy)-ethyl]-pyrrolidin-1-yl}-(4-methanesulfonyl-piperazin-1-yl)-methanone]

Second part, the compound before the results:

Structure (SMILES) | Ki
C[C@@H]1CN(C(=O)N2C[C@@H]([C@@H](C)Oc3ccc(C(F)(F)F)cc3)[C@H](c3ccc(Cl)c(Cl)c3)C2)CCN1S(C)(=O)=O (mixture of isomers) [Example 27, {(3RS,4SR)-3-(3,4-Dichloro-phenyl)-4-[(RS)-1-(4-trifluoromethyl-phenoxy)-ethyl]-pyrrolidin-1-yl}-((R)-4-methanesulfonyl-3-methyl-piperazin-1-yl)-methanone] | 9.6 nM
C[C@@H](Oc1ccc(C(F)(F)F)cc1)[C@@H]1CN(C(=O)N2CCN(S(C)(=O)=O)CC2)C[C@H]1c1ccc(Cl)c(Cl)c1 (racemic) [Example 16, {(3RS,4SR)-3-(3,4-Dichloro-phenyl)-4-[(RS)-1-(4-trifluoromethyl-phenoxy)-ethyl]-pyrrolidin-1-yl}-(4-methanesulfonyl-piperazin-1-yl)-methanone] | 28.8 nM
C[C@H](Oc1ccc(C(F)(F)F)cc1)[C@@H]1CN(C(=O)N2CCN(S(C)(=O)=O)CC2)C[C@H]1c1ccc(Cl)c(Cl)c1 (racemic) [Example 17, {(3RS,4SR)-3-(3,4-Dichloro-phenyl)-4-[(SR)-1 (4-trifluoromethyl-phenoxy)-ethyl]-pyrrolidin-1-yl}-(4-methanesulfonyl-piperazin-1-yl)-methanone] | 46.8 nM
C[C@@H](Oc1ccc(C(F)(F)F)cc1)[C@@H]1CN(C(=O)N2CCC(N(C)S(C)(=O)=O)CC2)C[C@H]1c1ccc(Cl)c(Cl)c1 (racemic) [Example 18, N-(1-{(3RS,4SR)-3-(3,4-Dichloro-phenyl)-4-[(RS)-1-(4-trifluoromethyl-phenoxy)-ethyl]-pyrrolidine-1-carbonyl}-piperidin-4-yl)-N-methyl-methanesulfonamide] | 77.9 nM
C[C@@H](Oc1ccc(C(F)(F)F)cc1)[C@@H]1CN(C(=O)CN2CCC(N(C)S(C)(=O)=O)CC2)C[C@H]1c1ccc(Cl)c(Cl)c1 (racemic) [Example 20, N-[1-(2-{(3RS,4SR)-3-(3,4-Dichloro-phenyl)-4-[(RS)-1-(4-trifluoromethyl-phenoxy)-ethyl]-pyrrolidin-1-yl}-2-oxo-ethyl)-piperidin-4-yl]-N-methyl-methanesulfonamide] | 59.5 nM
CC(=O)N1CCN(CC(=O)N2C[C@@H]([C@@H](C)Oc3ccc(C(F)(F)F)cc3)[C@H](c3ccc(Cl)c(Cl)c3)C2)CC1 (racemic) [Example 24, 2-(4-Acetyl-piperazin-1-yl)-1-{(3RS,4SR)-3-(3,4-dichloro-phenyl)-4-[(RS)-1-(4-trifluoromethyl-phenoxy)-ethyl]-pyrrolidin-1-yl}-ethanone] | 58.9 nM
CC(=O)NC1CCN(CC(=O)N2C[C@@H]([C@@H](C)Oc3ccc(C(F)(F)F)cc3)[C@H](c3ccc(Cl)c(Cl)c3)C2)CC1 (racemic) [Example 25, N-[1-(2-{(3RS,4SR)-3-(3,4-Dichloro-phenyl)-4-[(RS)-1-(4-trifluoromethyl-phenoxy)-ethyl]-pyrrolidin-1-yl}-2-oxo-ethyl)-piperidin-4-yl]-acetamide] | 59.7 nM
C[C@@H](Oc1ccc(Cl)c(Cl)c1)[C@@H]1CN(C(=O)N2CCN(S(C)(=O)=O)CC2)C[C@H]1c1ccc(Cl)c(Cl)c1 (racemic) [Example 30, [(3SR,4RS)-3-[(RS)-1-(3,4-Dichloro-phenoxy)-ethyl]-4-(3,4-dichloro-phenyl)-pyrrolidin-1-yl]-(4-methanesulfonyl-piperazin-1-yl)-methanone] | 79.6 nM
Cc1ccc(O[C@H](C)[C@@H]2CN(C(=O)N3CCN(S(C)(=O)=O)CC3)C[C@H]2c2ccc(Cl)c(Cl)c2)cc1 (racemic) [Example 31, [(3RS,4SR)-3-(3,4-Dichloro-phenyl)-4-((RS)-1-p-tolyloxy-ethyl)-pyrrolidin-1-yl]-(4-methanesulfonyl-piperazin-1-yl)-methanone] | 58.9 nM
C[C@@H](Oc1ccc(C#N)cc1)[C@@H]1CN(C(=O)N2CCN(S(C)(=O)=O)CC2)C[C@H]1c1ccc(Cl)c(Cl)c1 (racemic) [Example 33, 4-{(RS)-1-[(3SR,4RS)-4-(3,4-Dichloro-phenyl)-1-(4-methanesulfonyl-piperazine-1-carbonyl)-pyrrolidin-3-yl]ethoxy}-benzonitrile] | 75.6 nM
C[C@@H](Oc1ccc(F)cc1)[C@@H]1CN(C(=O)N2CCN(S(C)(=O)=O)CC2)C[C@H]1c1ccc(Cl)c(Cl)c1 (racemic) [Example 34, {(3RS,4SR)-3-(3,4-Dichloro-phenyl)-4-[(RS)-1-(4-fluoro-phenoxy)-ethyl]-pyrrolidin-1-yl}-(4-methanesulfonyl-piperazin-1-yl)-methanone] | 40.1 nM
